Laboratory results reported in patent publication US20150182525A1, “4-Amino-5-Fluoro-3-[6-(4-Methylpiperazin-1-YL)-1H-Benzimidazol-2-YL]-1H-Quinolin-2-one for use in the Treatment of Adenoid Cystic Carcinoma” (priority 2011, published 2015).
“Also recorded” adds a separate entry of the source.

Legend:
[1] = test system: ACCx6 xenograft tumor line; experiment: ACCx6 adenoid cystic carcinoma xenograft efficacy study in nude mice; assay type: in vivo; conditions: 50 mg/kg p.o. qd x28; D28; P<0.001 as compared to 5/10 mg/kg docetaxel monotherapy
Description: The tumors are maintained by engraftment in nude mice. A 1 mm^3 fragment is implanted subcutaneously in the right flank of each test animal The tumors are measured with calipers twice weekly, and daily as the mean volume approached 100-150 mm^3 Seven days after tumor cell implantation, on D1 (day 1) of the study, the animals are sorted into groups of ten mice, with individual tumor sizes of 100-1250 mm^3 Tumor size, in mm^3, is calculated from
where “w” is the width and “1” is the length, in mm, of the tumor. Tumor weight is estimated with the assumption that 1 mg is equivalent to 1 mm^3 of tumor volume. For the efficacy study dovitinib and its vehicle are each administered orally (p.o.), once daily for twenty eight consecutive days (qd x28). […] The dosing volume, 10 mL/kg (0.2 mL20 g mouse), is scaled to the weight of each animal as determined on the day of dosing, except on weekends when the previous BW was carried forward.
The study begins on Day 1 (D1). Efficacy is determined from tumor volume changes up to D28 (day 28). Efficacy is determined on D28.
For the purpose of statistical and graphical analyses, ΔTV, the difference in tumor volume between D1 (the start of dosing) and the endpoint day, was determined for each animal For each treatment group, the response on the endpoint day was calculated by the following relation: […]

[2] = test system: ACCx5M1 xenograft tumor line; experiment: ACCx5M1 adenoid cystic carcinoma xenograft tumor growth delay study in nude mice; assay type: in vivo
Description: The data set is comprised of the first observation that exceeded the study endpoint volume and the three consecutive observations that immediately preceded the attainment of the endpoint volume. The calculated TTE is usually less than the day on which an animal is euthanized for tumor size.

[3] = test system: Stage IV adenoid cystic carcinoma; experiment: Dovitinib clinical trial, adenoid cystic carcinoma patient, radiologic imaging of target lesions; assay type: in vivo, human
Description: A patient with Stage IV adenoid cystic carcinoma was enrolled in a dovitinib clinical trial.
The patient was originally diagnosed 20 years ago with Stage II well differentiated ACC on the right cheek mucosa. Patient was previously treated using tumor resection of right cheek mucosa and right upper jaw and treated with radiation therapy, followed by chemotherapy with 5 FU (250 mg/m^2), ciplatin (40 mg/m^2), doxorubicin (20 or 27 mg/m^2) and cyclophosphamide (400 mg/m^2).
Recurrence of ACC occurred […], and patient was again treated using surgery of right cheek and submandibular Lymph nodes. Patient was subsequently treated with radiation therapy and followed by chemotherapy (TS-1, 120 mg/day).
Patient was enrolled into the dovitinib clinical trial and was treated with dovitinb 500 mg 5 days on 2 days off.

primary ACC xenografts = experiment: Tumor growth inhibition in primary ACC xenograft models; assay type: in vivo, immunodeficient mice; conditions: FIGS. 6 and 7
Description: Once confirmed, established ACC xenograft models were developed until growth characteristic stabilized at which point viable stocks were collected and banked. According to one embodiment, the efficacy of dovitinib was evaluated in inhibiting tumor growth in certain ACC xenografts.

[4] = 500 mg 5 days on 2 days off, after 1 cycle of treatment (4 weeks), one patient

SMILES: CN1CCN(c2ccc3nc(-c4c(N)c5c(F)cccc5[nH]c4=O)[nH]c3c2)CC1 [dovitinib, 4-amino-5-fluoro-3-[6-(4-methylpiperazin-1-yl)-1H-benzimidazol-2-yl]-1H-quinolin-2-one]
- median growth inhibition (tumor volume) [1]: significant median growth inhibition
- survival extension ([2]; 50 mg/kg monotherapy, Logrank test, P<0.05): significant
- % TGD (tumor growth delay) ([2]; 50 mg/kg p.o. qd x64 monotherapy, study endpoint D64 or endpoint tumor volume): 49%
- reduction of total diameter of target lesions [3, 4]: 26%
- reduction of tumor diameter on the right facial target lesion [3, 4]: 70%
- reducing ACC tumor growth in a human clinical trial ([3]; after 1 cycle of treatment): surprisingly effective in reducing ACC tumor growth
- inhibiting tumor growth in primary ACC xenografts (primary ACC xenografts): effective for inhibiting tumor growth; also recorded: surprisingly effective in inhibiting tumor
